Assay results published in patent US20160367705A1, “NANOPARTICLES COMPRISED OF SHELLS ASSOCIATED WITH CHARGED ENTITIES AND FORMED FROM MONOMERS AND METHODS OF MAKING AND USING NANOPARTICLES” (New York University, priority 2015, published 2016).

Assay: Dynamic light scattering (DLS) particle size
Format: physicochemical
Conditions: in chloroform; reverse micelles at w=11.9
Experimental: Samples for dynamic light scattering are prepared by dissolving 1 mg of sample into 4 mL of solvent. The solution was then filtered through a 0.45 μm syringe filter into quartz cuvette with a path length of 2 cm. The measurements are obtained on a Malvern Zetasizer Nano.
Solubility properties dictate that gluc anions reside in the aqueous polar region of the reverse micelle and remain associated with CDA through the pairing of carboxylate with the cationic […] head group of CDA.

## Acetamido Cetyl Dimethyl Ammonium Glucuronate [CDA-gluc]
  average diameter (DLS): 14 nm
